≈ marks a conversion by molar mass, not a printed value. Read-outs that look alike come from different tables or passages of the source.
Experiments:
S. aureus (ATCC 25923) = assay: Broth microdilution assay, MIC; assay type: cell-based; conditions: Staphylococcus aureus, ATCC25923, read-out: Minimum Inhibitory Concentration
E. coli (ATCC25922) = assay: Broth microdilution assay, MIC; assay type: cell-based; conditions: Escherichia coli, ATCC25922, read-out: Minimum Inhibitory Concentration
C. albicans (ATCC 10231) = assay: Broth microdilution assay, antifungal MIC/MFC; assay type: cell-based, Candida albicans; conditions: for ratio (MFC/MIC): C. albicans (ATCC 10231); for MFC / MIC: Candida albicans; for fungicidal or fungistatic behavior: C. albicans, MFC/MIC > 4 = fungistatic
B. subtilis (ATCC 9372) = assay: Broth microdilution assay, MIC; assay type: cell-based; conditions: Bacillus subtilis, ATCC9372, read-out: Minimum Inhibitory Concentration
[1] = target: T1, M. tuberculosis DHFR enzyme (Mycobacterium tuberculosis, UniProt P9WNX1); assay: biochemical
T1 sequence (P9WNX1 1-161): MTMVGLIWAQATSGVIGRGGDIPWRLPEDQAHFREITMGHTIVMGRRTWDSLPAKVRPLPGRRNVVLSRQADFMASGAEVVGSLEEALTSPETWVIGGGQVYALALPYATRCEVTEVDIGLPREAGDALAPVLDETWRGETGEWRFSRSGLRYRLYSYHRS

[2] = system: P. aeruginosa (ATCC 29853); assay: Broth microdilution assay, MIC/MBC; assay type: cell-based; conditions: for ratio (MBC/MIC): P. aeruginosa (ATCC 29853); for bactericidal or bacteriostatic effect / fold more efficient than amoxicillin: P. aeruginosa; for bactericidal or bacteriostatic effect: MBC/MIC ≤ 4 = bactericidal; for MBC / MIC: Pseudomonas aeruginosa; for fold more efficient than amoxicillin: from MICs
[3] = system: M. tuberculosis (RCMB 010126); assay: Microplate alamar blue assay; assay type: cell-based, Mycobacterium tuberculosis; conditions: MABA
[4] = ATCC10231, read-out: Minimum Inhibitory Concentration
[5] = ATCC29853, read-out: Minimum Inhibitory Concentration
[6] = Mycobacterium tuberculosis, RCMB010126, sensitive Mycobacterium tuberculosis (RCMB 010126)
[7] = sensitive Mycobacterium tuberculosis (RCMB 010126)

| Compound | MIC (S. aureus (ATCC 25923)) [µg/mL] | MIC (E. coli (ATCC25922)) [µg/mL] | ratio (MFC/MIC) (C. albicans (ATCC 10231)) | MFC (C. albicans (ATCC 10231); ATCC10231) [µg/mL] | MIC (C. albicans (ATCC 10231); ATCC10231) [µg/mL] | MIC (C. albicans (ATCC 10231); [4]) [µg/mL] | MIC (B. subtilis (ATCC 9372)) [µg/mL] | IC50 [1] [µM] | ratio (MBC/MIC) [2] | bactericidal or bacteriostatic effect [2] | MBC ([2]; ATCC29853) [µg/mL] | MIC ([2]; ATCC29853) [µg/mL] | MIC [2, 5] [µg/mL] | MIC [3, 6] [µg/mL] | MIC [3, 7] [µg/mL] | fungicidal or fungistatic behavior (C. albicans (ATCC 10231)) | fold more efficient than amoxicillin [2] [fold] |
| --- | --- | --- | --- | --- | --- | --- | --- | --- | --- | --- | --- | --- | --- | --- | --- | --- | --- |
| COc1ccc(OC)c(C2CC(c3cccs3)=NN2C2=NC(=O)CCS2)c1 (stereo not shown) [10b, 5,6-Dihydro-2-(4,5-dihydro-5-(2,5-dimethoxyphenyl)-3-(thiophen-2-yl)pyrazol-1-yl)-1,3-thiazin-4-one] | 250 (≈ 623 µM) | 125 (≈ 311 µM) | 2 | 31.2 (≈ 77.8 µM) | 15.6 (≈ 38.9 µM) | 15.6 (≈ 38.9 µM) | 62.5 (≈ 156 µM) | 10.6 ± 0.31 | 4 | bactericidal | 250 (≈ 623 µM) | 62.2 (≈ 155 µM) | 62.2 (≈ 155 µM) | – | – | – | – |
| COc1ccc(C=C2SC(N3N=C(c4cccs4)CC3c3cc(OC)ccc3OC)=NC2=O)cc1 (stereo not shown) [8b, 5-(4-Methoxybenzylidene)-2-(4,5-dihydro-5-(2,5-dimethoxyphenyl)-3-(thiophen-2-yl)pyrazol-1-yl)thiazol-4(5H)-one] | 62.5 (≈ 124 µM) | > 500 | 4 | 125 (≈ 247 µM) | 31.2 (≈ 61.8 µM) | 31.2 (≈ 61.8 µM) | 62.5 (≈ 124 µM) | 18.5 ± 0.61 | 8 | – | 500 (≈ 989 µM) | 62.2 (≈ 123 µM) | 62.2 (≈ 123 µM) | – | – | – | – |
| Brc1ccc(-c2csc(N3N=C(c4cccs4)CC3c3cccs3)n2)cc1 (stereo not shown) [4c, 1-(4-(4-Bromophenyl)thiazol-2-yl)-4,5-dihydro-3,5-di(thiophen-2-yl)-1H-pyrazole] | 62.5 (≈ 132 µM) | > 500 | 8 | 31.2 (≈ 66.1 µM) | 3.9 (≈ 8.25 µM) | 3.9 (≈ 8.25 µM) | 125 (≈ 265 µM) | 4.21 ± 0.13 | 4 | bactericidal | 125 (≈ 265 µM) | 31.2 (≈ 66.1 µM) | 31.2 (≈ 66.1 µM) | 0.12 to 1.95 (≈ 0.254 to 4.13 µM) | 0.12 (≈ 0.254 µM) | fungistatic | ~16 |
| COc1ccc(OC)c(C2CC(c3cccs3)=NN2C2=NC(=O)C(=C3C(=O)Nc4ccccc43)S2)c1 (stereo not shown) [9b, 3-(2-(4,5-Dihydro-5-(2,5-dimethoxyphenyl)-3-(thiophen-2-yl)pyrazol-1-yl)-4-oxothiazol-5(4H)-ylidene)indolin-2-one] | 62.5 (≈ 121 µM) | 125 (≈ 242 µM) | 16 | 500 (≈ 968 µM) | 31.2 (≈ 60.5 µM) | 31.2 (≈ 60.5 µM) | 125 (≈ 242 µM) | 22.7 ± 0.55 | 2 | bactericidal | 125 (≈ 242 µM) | 62.2 (≈ 120 µM) | 62.2 (≈ 120 µM) | – | – | fungistatic | – |
| COc1ccc(OC)c(C2CC(c3cccs3)=NN2C2=NC(=O)CS2)c1 (stereo not shown) [6b, 2-(4,5-Dihydro-5-(2,5-dimethoxyphenyl)-3-(thiophen-2-yl)pyrazol-1-yl)thiazol-4(5H)-one] | 62.5 (≈ 161 µM) | 125 (≈ 323 µM) | 4 | 15.6 (≈ 40.3 µM) | 3.9 (≈ 10.1 µM) | 3.9 (≈ 10.1 µM) | 125 (≈ 323 µM) | 5.7 ± 0.28 | 4 | bactericidal | 15.6 (≈ 40.3 µM) | 3.9 (≈ 10.1 µM) | 3.9 (≈ 10.1 µM) | 0.12 to 1.95 (≈ 0.31 to 5.03 µM) | 0.12 (≈ 0.31 µM) | – | – |
| O=C1N=C(N2N=C(c3cccs3)CC2c2cccs2)SC1=C1C(=O)Nc2ccccc21 (stereo not shown) [9a, 3-(2-(4,5-Dihydro-3,5-di(thiophen-2-yl)pyrazol-1-yl)-4-oxothiazol-5(4H)-ylidene)indolin-2-one] | 62.5 (≈ 135 µM) | 125 (≈ 270 µM) | 2 | 250 (≈ 540 µM) | 125 (≈ 270 µM) | 125 (≈ 270 µM) | 125 (≈ 270 µM) | – | 2 | bactericidal | 62.2 (≈ 135 µM) | 31.2 (≈ 67.6 µM) | 31.2 (≈ 67.6 µM) | 15.6 (≈ 33.7 µM) | – | – | ~16 |
| COc1ccc(OC)c(C=C2SC(N3N=C(c4cccs4)CC3c3cccs3)=NC2=O)c1 (stereo not shown) [8c, 5-(2,5-Dimethoxybenzylidene)-2-(4,5-dihydro-3,5-di(thiophen-2-yl)pyrazol-1-yl)thiazol-4(5H)-one] | 62.5 (≈ 130 µM) | 125 (≈ 260 µM) | 2 | 62.2 (≈ 129 µM) | 31.2 (≈ 64.9 µM) | 31.2 (≈ 64.9 µM) | 125 (≈ 260 µM) | – | 8 | – | 250 (≈ 519 µM) | 31.2 (≈ 64.9 µM) | 31.2 (≈ 64.9 µM) | 7.81 (≈ 16.2 µM) | – | – | ~16 |
| CCOC(=O)c1sc(N2N=C(c3cccs3)CC2c2cccs2)nc1C (stereo not shown) [5a, Ethyl 2-(4,5-dihydro-3,5-di(thiophen-2-yl)pyrazol-1-yl)-4-methylthiazole-5-carboxylate] | 62.5 (≈ 155 µM) | > 500 | 4 | 500 (≈ 1240 µM) | 125 (≈ 310 µM) | 125 (≈ 310 µM) | 3.9 (≈ 9.66 µM) | – | >1 | – | > 500 | > 500 | > 500 | 31.2 (≈ 77.4 µM) | – | – | – |
| CCOC(=O)c1sc(N2N=C(c3cccs3)CC2c2cc(OC)ccc2OC)nc1C (stereo not shown) [5b, Ethyl 2-(4,5-dihydro-5-(2,5-dimethoxyphenyl)-3-(thiophen-2-yl)pyrazol-1-yl)-4-methylthiazole-5-carboxylate] | 62.5 (≈ 137 µM) | 125 (≈ 273 µM) | 2 | 125 (≈ 273 µM) | 62.5 (≈ 137 µM) | 62.5 (≈ 137 µM) | 125 (≈ 273 µM) | – | 2 | bactericidal | 62.2 (≈ 136 µM) | 31.2 (≈ 68.3 µM) | 31.2 (≈ 68.3 µM) | 31.2 (≈ 68.3 µM) | – | – | ~16 |
